According to US20250179032A1, “HETEROCYCLIC INHIBITORS OF GLUT9 FOR TREATMENT OF DISEASE” (HORIZON THERAPEUTICS IRELAND DAC, priority 2022, published 2025):

Target: T1, H. sapiens SLC2A9 variant 2 (GLUT9B) (Homo sapiens, UniProt Q9NRM0)
T1 sequence (Q9NRM0 1-511 isoform Q9NRM0-2): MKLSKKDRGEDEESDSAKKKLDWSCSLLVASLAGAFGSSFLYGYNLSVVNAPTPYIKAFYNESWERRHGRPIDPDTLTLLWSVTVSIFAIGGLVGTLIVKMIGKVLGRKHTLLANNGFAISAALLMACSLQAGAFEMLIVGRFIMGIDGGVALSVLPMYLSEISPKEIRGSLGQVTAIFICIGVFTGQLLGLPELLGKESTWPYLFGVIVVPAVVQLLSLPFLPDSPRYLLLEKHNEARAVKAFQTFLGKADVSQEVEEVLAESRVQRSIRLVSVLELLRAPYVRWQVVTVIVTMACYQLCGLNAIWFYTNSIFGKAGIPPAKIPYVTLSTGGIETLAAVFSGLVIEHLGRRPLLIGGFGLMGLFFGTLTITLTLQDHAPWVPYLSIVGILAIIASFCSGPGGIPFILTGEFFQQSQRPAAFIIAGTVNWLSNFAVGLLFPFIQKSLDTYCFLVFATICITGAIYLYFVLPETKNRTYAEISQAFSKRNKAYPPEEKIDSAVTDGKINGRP
Experiment: GLUT9 functional assay: uric acid uptake in HEK293T cells, allantoin formation by MS/MS as proxy of GLUT9B inhibition
Type: cell-based
Settings: 60 minute assay; HEK293T cells stably expressing GLUT9B and transiently A. oryzae uricase; uric acid 0.3 mM, 37° C.; read-out: 60 min IC50
Summary of the method: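 HEK293T cells stably expressing human GLUT9B and transiently expressing A. oryzae uricase, exposed across a 12-point curve to 0.3 mM uric acid (Km) in sodium gluconate buffer pH 7.4 for 15 or 60 min at 37° C. Allantoin in lysates quantified by RapidFire MS/MS (positive ion) against a matrix-matched standard curve as proxy for uptake.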

Compound | IC50 [nM]
COCCCc1cnc(-c2ccnc3[nH]ccc23)c(N2CCC(C(=O)O)CC2)n1 [Compound 194, 1-(6-(3-methoxypropyl)-3-(1H-pyrrolo[2,3-b]pyridin-4-yl)pyrazin-2-yl)piperidine-4-carboxylic acid] | > 2000
COCCCc1cnc(-c2ccc3ncnn3c2)c(N2CCC(C(=O)O)CC2)n1 [Compound 195, 1-(3-([1,2,4]triazolo[1,5-a]pyridin-6-yl)-6-(3-methoxypropyl)pyrazin-2-yl)piperidine-4-carboxylic acid] | > 2000
COCCCc1cnc(-c2cnc3nccn3c2)c(N2CCC(C(=O)O)CC2)n1 [Compound 196, 1-(3-(imidazo[1,2-a]pyrimidin-6-yl)-6-(3-methoxypropyl)pyrazin-2-yl)piperidine-4-carboxylic acid] | > 2000
COCCCc1cnc(-c2ccnc3ccccc23)c(N2CCC(C(=O)O)CC2)n1 [Compound 200, 1-(6-(3-methoxypropyl)-3-(quinolin-4-yl)pyrazin-2-yl)piperidine-4-carboxylic acid] | > 2000
COCCCc1cnc(-c2cc(C(F)(F)F)nn2C)c(N2CCC(C(=O)O)CC2)n1 [Compound 201, 1-(6-(3-methoxypropyl)-3-(1-methyl-3-(trifluoromethyl)-1H-pyrazol-5-yl)pyrazin-2-yl)piperidine-4-carboxylic acid] | > 2000
COCCCc1cnc(-c2ccnn2CCC(C)C)c(N2CCC(C(=O)O)CC2)n1 [Compound 202, 1-(3-(1-isopentyl-1H-pyrazol-5-yl)-6-(3-methoxypropyl)pyrazin-2-yl)piperidine-4-carboxylic acid] | > 2000
COCCCc1cnc(-c2ccc3nsnc3c2)c(N2CCC(C(=O)O)CC2)n1 [Compound 204, 1-(3-(benzo[c][1,2,5]thiadiazol-5-yl)-6-(3-methoxypropyl)pyrazin-2-yl)piperidine-4-carboxylic acid] | > 2000
COCCCc1cnc(-c2ccc3nccn3c2)c(N2CCC(C(=O)O)CC2)n1 [Compound 205, 1-(3-(imidazo[1,2-a]pyridin-6-yl)-6-(3-methoxypropyl)pyrazin-2-yl)piperidine-4-carboxylic acid] | > 2000
COCCCc1cnc(-c2cnn3c2CCCC3)c(N2CCC(C(=O)O)CC2)n1 [Compound 206, 1-(6-(3-methoxypropyl)-3-(4,5,6,7-tetrahydropyrazolo[1,5-a]pyridin-3-yl)pyrazin-2-yl)piperidine-4-carboxylic acid] | > 2000
COCCCc1cnc(-c2ccc3cncn3c2)c(N2CCC(C(=O)O)CC2)n1 [Compound 207, 1-(3-(imidazo[1,5-a]pyridin-6-yl)-6-(3-methoxypropyl)pyrazin-2-yl)piperidine-4-carboxylic acid] | > 2000
COCCCc1cnc(-c2ccn3ccnc3c2)c(N2CCC(C(=O)O)CC2)n1 [Compound 208, 1-(3-(imidazo[1,2-a]pyridin-7-yl)-6-(3-methoxypropyl)pyrazin-2-yl)piperidine-4-carboxylic acid] | > 2000
COCCCc1cnc(-c2cnn3c2OCCC3)c(N2CCC(C(=O)O)CC2)n1 [Compound 209, 1-(3-(6,7-dihydro-5H-pyrazolo[5,1-b][1,3]oxazin-3-yl)-6-(3-methoxypropyl)pyrazin-2-yl)piperidine-4-carboxylic acid] | > 2000
COCCCc1cnc(-c2ccc3nccn3n2)c(N2CCC(C(=O)O)CC2)n1 [Compound 211, 1-(3-(imidazo[1,2-b]pyridazin-6-yl)-6-(3-methoxypropyl)pyrazin-2-yl)piperidine-4-carboxylic acid] | > 2000
COCCCc1cnc(-c2cccc3nn(C)cc23)c(N2CCC(C(=O)O)CC2)n1 [Compound 215, 1-(6-(3-methoxypropyl)-3-(2-methyl-2H-indazol-4-yl)pyrazin-2-yl)piperidine-4-carboxylic acid] | > 2000
COCCCc1cnc(-c2cnc3c(c2)NCCO3)c(N2CCC(C(=O)O)CC2)n1 [Compound 216, 1-(3-(2,3-dihydro-1H-pyrido[2,3-b][1,4]oxazin-7-yl)-6-(3-methoxypropyl)pyrazin-2-yl)piperidine-4-carboxylic acid] | > 2000
COCCCc1cnc(-c2cnc3c(c2)ncn3C)c(N2CCC(C(=O)O)CC2)n1 [Compound 219, 1-(6-(3-methoxypropyl)-3-(3-methyl-3H-imidazo[4,5-b]pyridin-6-yl)pyrazin-2-yl)piperidine-4-carboxylic acid] | > 2000
COCCCc1cnc(-c2ccnc3cc(OC)ccc23)c(N2CCC(C(=O)O)CC2)n1 [Compound 221, 1-(6-(3-methoxypropyl)-3-(7-methoxyquinolin-4-yl)pyrazin-2-yl)piperidine-4-carboxylic acid] | > 2000

Second part, the compound after the results:

IC50 [nM] | Compound
> 2000 | COCCCc1cnc(-c2ccc3c(C)[nH]nc3c2)c(N2CCC(C(=O)O)CC2)n1 [Compound 197, 1-(6-(3-methoxypropyl)-3-(3-methyl-2H-indazol-6-yl)pyrazin-2-yl)piperidine-4-carboxylic acid]
> 2000 | COCCCc1cnc(-c2ccc3nn(C)cc3c2)c(N2CCC(C(=O)O)CC2)n1 [Compound 198, 1-(6-(3-methoxypropyl)-3-(2-methyl-2H-indazol-5-yl)pyrazin-2-yl)piperidine-4-carboxylic acid]
> 2000 | COCCCc1cnc(-c2cnc3ccccc3c2)c(N2CCC(C(=O)O)CC2)n1 [Compound 199, 1-(6-(3-methoxypropyl)-3-(quinolin-3-yl)pyrazin-2-yl)piperidine-4-carboxylic acid]
> 2000 | COCCCc1cnc(-c2cc3sccc3s2)c(N2CCC(C(=O)O)CC2)n1 [Compound 203, 1-(6-(3-methoxypropyl)-3-(thieno[3,2-b]thiophen-2-yl)pyrazin-2-yl)piperidine-4-carboxylic acid]
500 to 2000 | COCCCc1cnc(-c2cnc3sccc3c2)c(N2CCC(C(=O)O)CC2)n1 [Compound 210, 1-(6-(3-methoxypropyl)-3-(thieno[2,3-b]pyridin-5-yl)pyrazin-2-yl)piperidine-4-carboxylic acid]
> 2000 | COCCCc1cnc(-c2ccn3ncnc3c2)c(N2CCC(C(=O)O)CC2)n1 [Compound 212, 1-(3-([1,2,4]triazolo[1,5-a]pyridin-7-yl)-6-(3-methoxypropyl)pyrazin-2-yl)piperidine-4-carboxylic acid]
> 2000 | COCCCc1cnc(-c2cccc3cn(C)nc23)c(N2CCC(C(=O)O)CC2)n1 [Compound 213, 1-(6-(3-methoxypropyl)-3-(2-methyl-2H-indazol-7-yl)pyrazin-2-yl)piperidine-4-carboxylic acid]
> 2000 | COCCCc1cnc(-c2ccnc3c2ccn3C)c(N2CCC(C(=O)O)CC2)n1 [Compound 214, 1-(6-(3-methoxypropyl)-3-(1-methyl-1H-pyrrolo[2,3-b]pyridin-4-yl)pyrazin-2-yl)piperidine-4-carboxylic acid]
> 2000 | COCCCc1cnc(-c2cnc3c(cnn3C)c2)c(N2CCC(C(=O)O)CC2)n1 [Compound 217, 1-(6-(3-methoxypropyl)-3-(1-methyl-1H-pyrazolo[3,4-b]pyridin-5-yl)pyrazin-2-yl)piperidine-4-carboxylic acid]
> 2000 | COCCCc1cnc(-c2cnc3nn(C)cc3c2)c(N2CCC(C(=O)O)CC2)n1 [Compound 218, 1-(6-(3-methoxypropyl)-3-(2-methyl-2H-pyrazolo[3,4-b]pyridin-5-yl)pyrazin-2-yl)piperidine-4-carboxylic acid]
> 2000 | COCCCc1cnc(-c2ccnc3cc(F)c(OC)cc23)c(N2CCC(C(=O)O)CC2)n1 [Compound 222, 1-(3-(7-fluoro-6-methoxyquinolin-4-yl)-6-(3-methoxypropyl)pyrazin-2-yl)piperidine-4-carboxylic acid]
< 500 | COCCCc1cnc(-c2cc3ccoc3c(F)c2F)c(N2CCC(C(=O)O)CC2)n1 [Compound 223, 1-(3-(6,7-difluorobenzofuran-5-yl)-6-(3-methoxypropyl)pyrazin-2-yl)piperidine-4-carboxylic acid]
< 500 | COCCCc1cnc(-c2cc(Cl)c3occc3c2)c(N2CCC(C(=O)O)CC2)n1 [Compound 224, 1-(3-(7-chlorobenzofuran-5-yl)-6-(3-methoxypropyl)pyrazin-2-yl)piperidine-4-carboxylic acid]
< 500 | COCCCc1cnc(-c2cc(F)c3sccc3c2)c(N2CCC(C(=O)O)CC2)n1 [Compound 225, 1-(3-(7-fluorobenzo[b]thiophen-5-yl)-6-(3-methoxypropyl)pyrazin-2-yl)piperidine-4-carboxylic acid]
< 500 | COCCCc1cnc(-c2ccc3sccc3c2)c(N2CCC(C(=O)O)CC2)n1 [Compound 226, 1-(3-(benzo[b]thiophen-5-yl)-6-(3-methoxypropyl)pyrazin-2-yl)piperidine-4-carboxylic acid]
< 500 | COCCCCc1cnc(-c2cc(F)c3occc3c2)c(N2CCC(C(=O)O)CC2)n1 [Compound 227, 1-(3-(7-fluorobenzofuran-5-yl)-6-(4-methoxybutyl)pyrazin-2-yl)piperidine-4-carboxylic acid]
< 500 | COCCCCCc1cnc(-c2cc(F)c3occc3c2)c(N2CCC(C(=O)O)CC2)n1 [Compound 228, 1-(3-(7-fluorobenzofuran-5-yl)-6-(5-methoxypentyl)pyrazin-2-yl)piperidine-4-carboxylic acid]
